Measurements reported in PubChem BioAssay (NCI).
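Briefly, cells in 96-well plates were exposed to five compound concentrations for 48 h, and endpoints were estimated by linear interpolation. TGI: total growth inhibition.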

Legend:
Test in all cases: NCI tumour cell line growth inhibition, 48 h
786-0 renal = test system: 786-0 renal
BT-549 breast = test system: BT-549 breast
CCRF-CEM leukemia = test system: CCRF-CEM leukemia
COLO 205 colon = test system: COLO 205 colon
HS 578T breast = test system: HS 578T breast
IGROV1 ovarian = test system: IGROV1 ovarian
KM12 colon = test system: KM12 colon
MDA-MB-231 breast = test system: MDA-MB-231 breast
OVCAR-3 ovarian = test system: OVCAR-3 ovarian
OVCAR-4 ovarian = test system: OVCAR-4 ovarian
OVCAR-5 ovarian = test system: OVCAR-5 ovarian
SK-OV-3 ovarian = test system: SK-OV-3 ovarian
SN12C renal = test system: SN12C renal
UACC-62 melanoma = test system: UACC-62 melanoma

Row | SMILES | TGI (786-0 renal) [µM] | TGI (BT-549 breast) [µM] | TGI (CCRF-CEM leukemia) [µM] | TGI (COLO 205 colon) [µM] | TGI (HS 578T breast) [µM] | TGI (IGROV1 ovarian) [µM] | TGI (KM12 colon) [µM] | TGI (MDA-MB-231 breast) [µM] | TGI (OVCAR-3 ovarian) [µM] | TGI (OVCAR-4 ovarian) [µM] | TGI (OVCAR-5 ovarian) [µM] | TGI (SK-OV-3 ovarian) [µM] | TGI (SN12C renal) [µM] | TGI (UACC-62 melanoma) [µM]
1 | CC(=O)Nc1ncc2c(n1)-c1ccccc1OC2c1ccccc1 (configuration not stated) | 38.2 | > 100 | > 100 | > 100 | 55.4 | > 100 | > 100 | 75.3 | > 100 | 85.5 | > 100 | > 100 | > 100 | 36.4
2 | O=C(CCc1ccc(O)c(O)c1)NCCc1ccccc1 | > 100 | > 89.1 | > 90.8 | > 100 | > 100 | > 100 | > 100 | > 63.8 | > 100 | > 54.2 | > 100 | > 100 | > 31.6 | > 65.2
3 | O=C(c1cc(Cl)cc(Cl)c1)N(Cc1cccnc1)C(=S)N(Cc1cccnc1)C(=O)c1cc(Cl)cc(Cl)c1 | 73.8 | 81.5 | > 100 | 38.5 | > 100 |  | > 100 | 71.5 | 61.6 | 89.6 | > 100 | > 100 | > 100 | > 100
4 | OCC(O)C(O)C(O)C(O)CNCCO/N=C1/C(c2c(O)[nH]c3ccccc23)=Nc2ccccc21 (configuration not stated) | > 50 | 41.7 | 30.2 | 40.6 | 44.4 | > 50 | > 50 | 29.7 | 26.3 | > 50 | > 50 | 29.8 | 46.4 | 17.5
5 | CN1C(=O)N/C(=C\c2ccc(S(=O)(=O)N/N=C/c3ccccc3)cc2)C1=O | > 100 | > 100 | > 100 | > 100 | > 100 | > 100 | 82.1 | > 100 | > 100 | > 100 | > 100 | > 100 | > 100 | > 100
6 | COc1ccc2nc3cc([N+](=O)[O-])ccc3c(NNc3ccc([N+](=O)[O-])cc3)c2c1 | > 100 | > 100 | 98.6 | > 100 | > 100 | > 59 | > 100 | > 91.6 | > 100 | > 100 | > 100 | > 100 | > 100 | > 50.7
7 | CCOC(=O)c1cc(C2=CCNC2=O)c(-c2cc(C)no2)[nH]1 | > 100 | > 100 | > 100 | > 100 | > 100 | > 100 | > 100 | > 100 | > 100 | > 100 | > 100 | > 100 | > 100 | > 100
8 | CCCCCCCCCC(=O)NCCc1c[nH]c2ccc(OC)cc12 | 38.7 | 32.9 | 37.5 | 55.7 | 42.8 | 30 | > 100 | 30.9 | 30.3 | > 100 | 61.2 | 31.7 | 33.1 | 30.4
9 | O=C(NC1CCN(Cc2ccccc2)CC1)c1cccc(I)c1 | 57.8 | > 100 | > 100 | 32.5 | 83 | > 100 | 33.6 | 32.1 | > 100 | > 100 | > 100 | 42.8 | > 100 | 40.1
10 | C/C(=N\Nc1nc2ccccc2o1)c1ncccn1 | 12.1 | 34.8 | 0.0584 | 15.8 | > 61 | 1.16 | 30.2 | 21.5 |  | 10.2 | 19.6 | 10 | 15.2 | 0.449
11 | N#CC(NNC(=O)c1c(Cl)c(Cl)c(Cl)c(Cl)c1-c1nc2ccc(C(=O)c3ccccc3)cc2[nH]1)c1ccccc1 (configuration not stated) | 42.9 | > 100 | > 100 | 24.3 | > 100 | > 100 | > 100 | 36.4 | 57 | > 100 | > 100 | 69.8 | 31.1 | 
12 | C=C[C@]1(C)CC(=O)C(C(C)C=O)[C@]12C(=O)Oc1cccc(C)c1C2=O (some centres not stated) | 30 | 28.4 | 17.6 | 31.2 | 42.7 |  | 28.8 | 31.6 | 29.6 | 35.5 | 30.6 | 33.1 | 30.3 | 31
13 | O=S(=O)(O)c1ccc(Nc2ccnc3ccccc23)cc1 | > 100 | > 100 | > 100 | > 100 | > 100 | > 100 | > 100 | > 100 |  | > 100 | > 100 | > 100 | > 100 | > 100
